EP3325012B1, “CINEOLE-CONTAINING COMPOSITION FOR TREATING NOSE POLYPS” (Maria Clementine Martin Klosterfrau Vertriebsgesellschaft …, priority 2015, dated 2017)
Entries after “also recorded” stand apart in the source; their conditions may differ.

Columns and labels:
WIF-1 = conditions: Colon-Ca-Zelllinien; cited from earlier work
beta-Catenin = experiment: Anti-(active-)beta-catenin immunohistochemistry on polyp single-cell suspensions (chamber slides); type: cell-based, Mensch; conditions: 24 h incubation
Method: Im entzündlichen Infiltrat des Polyposisgewebes ließ sich immunhistochemisch nukleäres beta-Catenin nachweisen.
Es wurde eine Anti-Active-beta-Catenin-Immunhistochemie auf mit dem GSK-3-Inhibitor SB216763 für 24 h inkubierter Polyposis-Einzelzellsuspension (Chamber Slide) durchgeführt.

Polyposis-Primärgewebe = experiment: Cytokine release from polyposis primary tissue; type: cell-based, Mensch; conditions: incubation of primary tissue

SMILES | Regulation von WIF-1 (WIF-1) | Akkumulation von beta-Catenin im Zytoplasma (beta-Catenin) | Translokation von beta-Catenin in den Zellkern (beta-Catenin) | Ausschüttung von IL-6 (Polyposis-Primärgewebe) | Ausschüttung von IL-8 (Polyposis-Primärgewebe)
CC(=O)Oc1ccccc1C(=O)O [Acetylsalicylsäure] | Hochregulation |  |  |  | 
Cn1cc(C2=C(c3ccc(Cl)cc3Cl)C(=O)NC2=O)c2ccccc21 [SB216763] |  | Akkumulation von beta-Catenin im Zytoplasma; also recorded: deutliche Anreicherung | Translokation von beta-Catenin in den Zellkern | verminderte Ausschüttung | verminderte Ausschüttung
